Assay results taken from PMC11976424 (Journal of Advanced Research, 2024).

Key:
[1] = target: AMPKα2β1γ1 (AMP-activated protein kinase) (Homo sapiens, UniProt P54619+P54646+Q9Y478); test: SPR; format: binding
[2] = target: AMPKα1β1γ1 (AMP-activated protein kinase) (Homo sapiens, UniProt Q13131); test: SPR; format: binding
Chain of AMPKα1β1γ1 (AMP-activated protein kinase) (Q13131 whole entry): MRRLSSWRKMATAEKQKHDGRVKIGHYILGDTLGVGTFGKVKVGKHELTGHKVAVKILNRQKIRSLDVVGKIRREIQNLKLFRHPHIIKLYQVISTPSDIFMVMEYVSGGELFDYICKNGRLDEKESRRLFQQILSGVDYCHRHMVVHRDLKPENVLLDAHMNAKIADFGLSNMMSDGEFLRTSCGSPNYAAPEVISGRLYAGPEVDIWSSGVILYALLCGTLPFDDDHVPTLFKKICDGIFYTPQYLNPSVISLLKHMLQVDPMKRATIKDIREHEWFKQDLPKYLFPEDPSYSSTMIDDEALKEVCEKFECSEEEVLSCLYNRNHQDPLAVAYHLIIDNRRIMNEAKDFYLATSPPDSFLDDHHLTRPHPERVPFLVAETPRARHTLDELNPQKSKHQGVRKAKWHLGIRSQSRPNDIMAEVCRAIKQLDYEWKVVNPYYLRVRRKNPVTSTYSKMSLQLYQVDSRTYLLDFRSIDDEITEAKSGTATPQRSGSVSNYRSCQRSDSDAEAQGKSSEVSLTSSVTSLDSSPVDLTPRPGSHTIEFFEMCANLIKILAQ
Chain of AMPKα1β1γ1 (AMP-activated protein kinase) (Q9Y478 2-270 partner): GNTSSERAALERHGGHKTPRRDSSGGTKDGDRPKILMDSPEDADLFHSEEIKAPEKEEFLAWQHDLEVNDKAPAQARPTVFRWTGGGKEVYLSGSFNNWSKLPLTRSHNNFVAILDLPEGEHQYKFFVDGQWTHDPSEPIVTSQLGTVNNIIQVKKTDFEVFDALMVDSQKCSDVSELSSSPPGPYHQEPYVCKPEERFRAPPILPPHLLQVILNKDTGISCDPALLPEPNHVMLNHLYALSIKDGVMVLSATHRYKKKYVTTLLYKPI
Chain of AMPKα1β1γ1 (AMP-activated protein kinase) (P54619 whole entry partner): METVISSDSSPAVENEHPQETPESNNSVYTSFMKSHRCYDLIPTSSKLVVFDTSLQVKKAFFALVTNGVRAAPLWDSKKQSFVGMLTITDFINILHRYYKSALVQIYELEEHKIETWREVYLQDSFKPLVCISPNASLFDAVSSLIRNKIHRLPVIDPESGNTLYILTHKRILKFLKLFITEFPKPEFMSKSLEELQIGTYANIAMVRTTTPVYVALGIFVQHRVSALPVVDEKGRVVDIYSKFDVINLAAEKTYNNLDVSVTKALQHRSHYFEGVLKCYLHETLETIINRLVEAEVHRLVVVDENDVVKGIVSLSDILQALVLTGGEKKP

Chain of AMPKα2β1γ1 (AMP-activated protein kinase) (P54646 whole entry): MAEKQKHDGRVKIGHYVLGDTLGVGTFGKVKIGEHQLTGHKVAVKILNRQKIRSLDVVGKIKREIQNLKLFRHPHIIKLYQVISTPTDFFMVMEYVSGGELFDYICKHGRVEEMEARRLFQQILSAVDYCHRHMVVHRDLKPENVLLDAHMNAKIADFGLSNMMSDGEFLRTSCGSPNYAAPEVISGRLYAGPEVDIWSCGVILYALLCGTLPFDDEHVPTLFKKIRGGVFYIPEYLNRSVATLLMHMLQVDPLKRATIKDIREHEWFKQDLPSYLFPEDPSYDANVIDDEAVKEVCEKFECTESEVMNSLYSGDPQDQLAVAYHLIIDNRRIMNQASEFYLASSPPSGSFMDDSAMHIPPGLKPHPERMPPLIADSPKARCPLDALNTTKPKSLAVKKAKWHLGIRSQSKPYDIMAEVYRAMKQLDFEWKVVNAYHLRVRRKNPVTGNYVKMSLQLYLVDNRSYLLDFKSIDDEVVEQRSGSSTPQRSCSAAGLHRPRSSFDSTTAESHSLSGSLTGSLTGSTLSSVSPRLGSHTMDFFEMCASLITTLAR
Chain of AMPKα2β1γ1 (AMP-activated protein kinase) (Q9Y478 2-270 partner): as the sequence (Q9Y478 2-270 partner) above
Chain of AMPKα2β1γ1 (AMP-activated protein kinase) (P54619 whole entry partner): as the sequence (P54619 whole entry partner) above

- Kd [1]: 4.67 µM
- Kd [2]: 3.77 µM
SMILES: OC[C@H]1O[C@@H](Oc2c(O)cc(O)cc2/C=C/c2ccc(O)cc2)[C@H](O)[C@@H](O)[C@@H]1O [TSG, 2,3,5,4′-tetrahydroxystilbene-2-O-β-D-glucoside]
